Experimental data from patent US20200190507A1, “Encoded Solid Phase Compound Library with Polynucleotide Based Barcoding” (The Scripps Research Institute, priority 2016, published 2020).
“Also recorded” adds a separate entry of the source.

System: ATB serum IgGs
Assay: Antigen competition binding analysis with beads displaying 2-B
Set-up: species or system human
Details: pooled ATB serum, beads displaying 2-B; CFP 250 μg/mL

Substance | competition with 2-B for binding ATB serum IgGs
recombinant Ag85A: Mycobacterium tuberculosis recombinant protein reference standard Ag85A, NR-49427 | unreactive; also recorded: did not compete
Ag85A: Mycobacterium tuberculosis purified native protein Ag85A (Rv3804c), Strain H37Rv | competed; also recorded: compete strongly
